In patent publication US20260165323A1, “USE OF STROBILURIN TYPE COMPOUNDS FOR COMBATING PHYTOPATHOGENIC FUNGI CONTAINING AN AMINO ACID SUBSTITUTION F129L IN THE MITOCHONDRIAL CYTOCHROME B PROTEIN CONFERRING RESISTANCE TO QO […]” (priority 2022, published 2026):

Experiments:
[1] = test system: Puccinia recondita; assay: Use Example 4: preventative control of brown rust on wheat (PUCCRT P7); type: in vivo; details: inoculated seven days after spraying, % diseased leaf area
Procedure, shortened: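 First two leaves of potted wheat seedlings sprayed to run-off with compound in acetone/DMSO–emulsifier–water, then inoculated with Puccinia recondita spores seven days later. Plants held 24 h dark at 95–99% RH and 20–24 °C, then 9–11 days in greenhouse; diseased leaf area (%) scored visually.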

[2] = test system: Colletotrichum orbiculare (COLLLA); assay: Use example 8: microtest, growth of Colletotrichum orbiculare (COLLLA); type: cell-based; details: relative growth vs compound-free control (100%), 7 days; for Growth (%) COLLLA Use ex. 8: 8 ppm; for Growth (%) COLLLA Use Ex. 8: 125 ppm
Description: (§1) The active compounds were formulated separately as a stock solution having a concentration of 10000 ppm in dimethyl sulfoxide. The stock solutions were mixed according to the ratio, pipetted onto a micro titer plate (MTP) and diluted with water to the stated concentrations. A spore suspension of one of the following fungal plant pathogens in aqueous bio malt solution • was then added for the respective use example: • Use example 5: Alternaria solani (ALTESO) • Use example 6: Botrytis cinerea (BOTRCI) • Use example 7: Cercospora sojina (CERCSO) • Use example 8: Colletotrichum orbiculare (COLLLA) • Use example 9: Leptosphaeria nodorum (LEPTNO) • Use example 10: Drechslera teres (PYRNTE) containing the amino acid substitution F129L in the mitochondrial cytochrome b protein conferring resistance to Qo inhibitors • Use example 11: Sclerotinia sclerotiorum (SCLESC), solute with ultrasonic from a filter membrane
(§2) The plates were placed in a water vapor-saturated chamber at a temperature of 18° C. Using an absorption photometer, the MTPs were measured at 405 nm 7 days after the inoculation.
(§3) The measured parameters were compared to the growth of the active compound-free control variant (100%) and the fungus-free blank value to determine the relative growth in % of the pathogens in the respective active compounds.

[3] = test system: Puccinia recondita; assay: Use Example 3: curative control of brown rust on wheat (PUCCRT K4); type: in vivo; details: % diseased leaf area
Procedure, shortened: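 Wheat seedlings inoculated with Puccinia recondita spores, held 24 h at 95–99% RH, 20–24° C in dark, then 3 days in greenhouse before spraying to run-off (curative). Compound in acetone/DMSO–Wettol–water. After 5–7 further days at 20–24° C, 65–70% RH, % diseased leaf area scored visually.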

[4] = test system: Phakopsora pachyrhizi containing the amino acid substitution F129L in the mitochondrial cytochrome b protein; assay: Use Example 2: protective control of soybean rust on soybeans (PHAKPA P6); type: in vivo; details: inoculated six days after spraying, % diseased leaf area
Procedure, shortened: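 Compound in acetone and/or DMSO with Wettol (99:1), diluted with water, was sprayed to run-off on potted soybean seedlings. After six days at 23–27°C and 60–80% RH, plants were inoculated with a Qo-resistant F129L strain and held 24 h at about 95% RH. Percent diseased leaf area was scored visually after up to 14 days.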

[5] = test system: Drechslera teres (PYRNTE) containing the amino acid substitution F129L in the mitochondrial cytochrome b protein; assay: Use example 10: microtest, growth of Drechslera teres (PYRNTE) F129L; type: cell-based; details: 125 ppm, relative growth vs compound-free control (100%), 7 days; for Growth (%) PYRNTE F129L Use ex. 10: Table 13; for Growth (%) PYRNTE F129L Use Ex. 10: Table 7
Description: as §1, §2, §3

[6] = test system: Phakopsora pachyrhizi containing the amino acid substitution F129L in the mitochondrial cytochrome b protein; assay: Use Example 1: protective control of soybean rust on soybeans (PHAKPA P2); type: in vivo; details: inoculated 2 days after spraying, % diseased leaf area
Procedure, shortened: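 Soybean seedling leaves sprayed to run-off with compound in acetone/DMSO–Wettol–water at the stated concentration, kept 2 days at 23-27° C, then inoculated with Qo-inhibitor-resistant F129L P. pachyrhizi. After 24 h at ~95% RH, 20-24° C, and up to 14 days in greenhouse, % diseased leaf area scored visually.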

[7] = test system: Botrytis cinerea (BOTRCI); assay: Use example 6: microtest, growth of Botrytis cinerea (BOTRCI); type: cell-based; details: relative growth vs compound-free control (100%); for Growth (%) BOTRCI Use Ex. 6: 0.5 ppm, 7 days; for Growth at 125 ppm (%) BOTRCI Use Ex. 6 / Growth at 8 ppm (%) BOTRCI Use Ex. 6: 7 days after inoculation
Description: as §1, §2, §3

[8] = test system: Cercospora sojina (CERCSO); assay: Use example 7: microtest, growth of Cercospora sojina (CERCSO); type: cell-based; details: relative growth vs compound-free control (100%); for Growth (%) CERCSO Use Ex. 7: 7 days; for Growth at 8 ppm (%) CERCSO Use ex. 7: 7 days after inoculation
Description: as §1, §2, §3

[9] = test system: Sclerotinia sclerotiorum (SCLESC); assay: Use example 11: microtest, growth of Sclerotinia sclerotiorum (SCLESC); type: cell-based; details: relative growth vs compound-free control (100%), 7 days after inoculation; for Growth (%) SCLESC Use ex. 11: 8 ppm
Description: as §1, §2, §3

[10] = test system: Leptosphaeria nodorum (LEPTNO); assay: Use example 9: microtest, growth of Leptosphaeria nodorum (LEPTNO); type: cell-based; details: relative growth vs compound-free control (100%); for Growth at 125 ppm (%) LEPTNO Use Ex. 9: 7 days after inoculation; for Growth (%) LEPTNO Use Ex. 9: 125 ppm, 7 days, Table 9
Description: as §1, §2, §3

[11] = test system: Alternaria solani (ALTESO); assay: Use example 5: microtest, growth of Alternaria solani (ALTESO); type: cell-based; details: 0.125 ppm; relative growth vs compound-free control (100%), 7 days after inoculation
Description: as §1, §2, §3

Row | SMILES | % PUCCRT Disease level P7 at 4 ppm [1] [%] | % PUCCRT Disease level P7 at 16 ppm [1] [%] | % PUCCRT Disease level K4 at 4 ppm [3] [%] | % PUCCRT Disease level K4 at 16 ppm [3] [%] | % PHAKPA (F129L) Disease level P6 at 4 ppm [4] [%] | % PHAKPA (F129L) Disease level P6 at 16 ppm [4] [%] | % PHAKPA (F129L) Disease level P2 at 4 ppm [6] [%] | % PHAKPA (F129L) Disease level P2 at 16 ppm [6] [%] | also measured
1 | CNC(=O)/C(=N/OC)c1cccc(Cl)c1CO/N=C(\COC)c1c(F)cc(F)cc1F [compound 31] | 17 | 4 | 40 | 7 | 3 | 0 | 0 | 0 | Growth (%) COLLLA Use ex. 8 [2]: 34%; Growth (%) PYRNTE F129L Use ex. 10 [5]: 21%
2 | COC/C(=N\OCc1c(Cl)cccc1/C(=N\OC)C(=O)OC)c1ccc(Cl)cc1 [compound 34] | 48 | 9 | 75 | 70 | 80 | 25 | 68 | 22 | Growth (%) BOTRCI Use Ex. 6 [7]: 35%; Growth (%) PYRNTE F129L Use Ex. 10 [5]: 4%; Growth (%) CERCSO Use Ex. 7 ([8]; 31 ppm): 56%
3 | COC/C(=N\OCc1c(Br)cccc1/C(=N\OC)C(=O)OC)c1ccccc1 [compound 57] | 60 | 13 |  |  | 48 | 21 | 41 | 3 | Growth at 125 ppm (%) BOTRCI Use Ex. 6 [7]: 0%; Growth at 125 ppm (%) SCLESC Use Ex. 11 [9]: 2%; Growth at 125 ppm (%) LEPTNO Use Ex. 9 [10]: 1%
4 | COC/C(=N\OCc1c(C)cccc1/C(=N\OC)C(=O)OC)c1ccc(Cl)cc1 [I.1-A-83, reference compound] |  |  |  |  |  |  |  |  | Growth (%) BOTRCI Use Ex. 6 [7]: 53%; Growth (%) PYRNTE F129L Use Ex. 10 [5]: 23%; Growth (%) CERCSO Use Ex. 7 ([8]; 31 ppm): 83%
5 | CO/C=C(/C(=O)OC)c1cccc(Br)c1CO/N=C(\COC)c1c(F)cc(F)cc1F [compound 58] | 57 | 30 | 27 | 15 | 0 | 0 | 2 | 0 | Growth (%) COLLLA Use Ex. 8 [2]: 26%; Growth (%) CERCSO Use Ex. 7 ([8]; 125 ppm, Table 9): 63%; Growth (%) LEPTNO Use Ex. 9 [10]: 47%
6 | COC/C(=N\OCc1c(Cl)cccc1/C(=N\OC)C(=O)OC)c1ccc(F)cc1 [compound 1, Methyl (2E)-2-[3-chloro-2-[[(Z)-[1-(4-fluorophenyl)-2-methoxy-ethylidene]amino]oxymethyl]phenyl]-2-methoxyimino-acetate] | 53 | 23 | 87 | 77 | 57 | 11 | 20 | 1 | Growth (%) ALTESO Use ex. 5 [11]: 73%; Growth (%) SCLESC Use ex. 11 [9]: 72%
7 | CNC(=O)/C(=N/OC)c1cccc(C)c1CO/N=C(\COC)c1c(F)cc(F)cc1F [I.3-A-43860, reference compound] |  |  |  |  |  |  |  |  | Growth (%) COLLLA Use ex. 8 [2]: 62%; Growth (%) PYRNTE F129L Use ex. 10 [5]: 36%
8 | CO/N=C(/C(=O)OC)c1cccc(Br)c1CO/N=C(\C)c1ccccc1 [reference compound] |  |  |  |  |  |  |  |  | Growth at 125 ppm (%) BOTRCI Use Ex. 6 [7]: 69%; Growth at 125 ppm (%) SCLESC Use Ex. 11 [9]: 39%; Growth at 125 ppm (%) LEPTNO Use Ex. 9 [10]: 19%
9 | CO/C=C(/C(=O)OC)c1cccc(Cl)c1CO/N=C(\COC)c1c(F)cc(F)cc1F [compound 12, Methyl-(E)-2-[3-chloro-2-[[(Z)-[2-methoxy-1-(2,4,6-trifluorophenyl)ethylidene]amino]oxymethyl]phenyl]-3-methoxy-prop-2-enoate] | 17 | 9 | 23 | 18 | 4 | 0 | 2 | 0 | Growth (%) COLLLA Use Ex. 8 [2]: 20%
10 | COC/C(=N\OCc1c(C)cccc1/C(=N\OC)C(=O)OC)c1ccc(F)cc1 [reference compound] |  |  |  |  |  |  |  |  | Growth (%) ALTESO Use ex. 5 [11]: 97%; Growth (%) SCLESC Use ex. 11 [9]: 89%
11 | CNC(=O)/C(=N/OC)c1cccc(Cl)c1CO/N=C(\COC)c1cccc(C(F)(F)F)c1 [compound 56] | 2 | 2 | 8 | 0 | 23 | 0 | 15 | 0 | Growth at 8 ppm (%) BOTRCI Use Ex. 6 [7]: 64%; Growth at 8 ppm (%) CERCSO Use ex. 7 [8]: 13%
12 | CNC(=O)/C(=N/OC)c1cccc(C)c1CO/N=C(\COC)c1cccc(C(F)(F)F)c1 [reference compound] |  |  |  |  |  |  |  |  | Growth at 8 ppm (%) BOTRCI Use Ex. 6 [7]: 78%; Growth at 8 ppm (%) CERCSO Use ex. 7 [8]: 28%
13 | CO/C=C(/C(=O)OC)c1cccc(C)c1CO/N=C(\COC)c1c(F)cc(F)cc1F [I.2-A-43860, reference compound] |  |  |  |  |  |  |  |  | Growth (%) COLLLA Use Ex. 8 [2]: 43%; Growth (%) CERCSO Use Ex. 7 ([8]; 125 ppm, Table 9): 90%; Growth (%) LEPTNO Use Ex. 9 [10]: 64%
